What all share (assay): Enzyme Inhibition Assay
For assay [1], the target named is T1, Aminopeptidase N (Sus scrofa, UniProt P15145).
T1 sequence (P15145 whole entry): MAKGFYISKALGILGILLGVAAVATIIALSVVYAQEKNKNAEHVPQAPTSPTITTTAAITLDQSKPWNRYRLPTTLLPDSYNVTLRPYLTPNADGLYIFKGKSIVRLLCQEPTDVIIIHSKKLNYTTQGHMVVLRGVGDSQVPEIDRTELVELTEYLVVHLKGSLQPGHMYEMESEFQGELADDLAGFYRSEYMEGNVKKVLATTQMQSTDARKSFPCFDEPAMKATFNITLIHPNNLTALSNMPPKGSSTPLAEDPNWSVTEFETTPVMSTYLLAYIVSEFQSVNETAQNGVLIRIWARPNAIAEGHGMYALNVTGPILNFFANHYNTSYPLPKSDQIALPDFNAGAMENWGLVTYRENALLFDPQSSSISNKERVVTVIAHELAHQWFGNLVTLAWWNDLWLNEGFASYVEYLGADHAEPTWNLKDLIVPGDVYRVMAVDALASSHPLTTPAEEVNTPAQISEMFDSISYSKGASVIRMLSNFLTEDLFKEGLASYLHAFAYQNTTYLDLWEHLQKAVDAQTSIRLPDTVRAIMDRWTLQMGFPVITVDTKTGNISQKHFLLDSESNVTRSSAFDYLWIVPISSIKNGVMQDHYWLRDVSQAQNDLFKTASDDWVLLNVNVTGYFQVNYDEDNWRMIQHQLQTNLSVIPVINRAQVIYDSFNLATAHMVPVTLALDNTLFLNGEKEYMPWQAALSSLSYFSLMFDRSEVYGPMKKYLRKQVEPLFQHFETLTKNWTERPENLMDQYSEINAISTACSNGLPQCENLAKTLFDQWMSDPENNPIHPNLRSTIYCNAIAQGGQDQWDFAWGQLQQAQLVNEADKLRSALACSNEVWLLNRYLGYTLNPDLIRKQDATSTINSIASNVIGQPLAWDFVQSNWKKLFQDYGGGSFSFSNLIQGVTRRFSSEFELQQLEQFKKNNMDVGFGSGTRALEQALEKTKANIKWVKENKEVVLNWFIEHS

Assay [2] deals with Bacterial leucyl aminopeptidase (Vibrio proteolyticus, UniProt Q01693).
Assay [3] has as its target T2, Leukotriene A-4 hydrolase (Homo sapiens, UniProt P09960).
T2 sequence (P09960 whole entry): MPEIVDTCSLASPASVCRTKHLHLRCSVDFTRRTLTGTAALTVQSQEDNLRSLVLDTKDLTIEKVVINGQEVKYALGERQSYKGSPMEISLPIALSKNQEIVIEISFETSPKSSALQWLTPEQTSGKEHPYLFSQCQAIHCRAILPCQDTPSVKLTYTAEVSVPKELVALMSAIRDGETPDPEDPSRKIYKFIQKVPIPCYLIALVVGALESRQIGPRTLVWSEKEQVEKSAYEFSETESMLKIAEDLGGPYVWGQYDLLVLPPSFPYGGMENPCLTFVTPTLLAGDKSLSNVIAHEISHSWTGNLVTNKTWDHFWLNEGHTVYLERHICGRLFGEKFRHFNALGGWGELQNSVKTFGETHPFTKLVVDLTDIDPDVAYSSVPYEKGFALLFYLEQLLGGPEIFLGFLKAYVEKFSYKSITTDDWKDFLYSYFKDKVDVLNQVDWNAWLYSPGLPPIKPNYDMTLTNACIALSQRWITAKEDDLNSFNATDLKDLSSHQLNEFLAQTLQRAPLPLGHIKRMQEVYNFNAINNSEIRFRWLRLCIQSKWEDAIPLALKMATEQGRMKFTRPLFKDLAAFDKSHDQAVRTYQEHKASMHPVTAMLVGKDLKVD

Results on 17 compounds are retold here after BindingDB's records for doi:10.1016/j.bmc.2006.06.050 (Enscmu, 2006).

SMILES strings stand for the structures. pIC50, pKi: −log10 of the molar value. Counter-ions that a name gives are not always drawn. Some results are limits rather than exact numbers.

Chain of Bacterial leucyl aminopeptidase (Q01693 whole entry): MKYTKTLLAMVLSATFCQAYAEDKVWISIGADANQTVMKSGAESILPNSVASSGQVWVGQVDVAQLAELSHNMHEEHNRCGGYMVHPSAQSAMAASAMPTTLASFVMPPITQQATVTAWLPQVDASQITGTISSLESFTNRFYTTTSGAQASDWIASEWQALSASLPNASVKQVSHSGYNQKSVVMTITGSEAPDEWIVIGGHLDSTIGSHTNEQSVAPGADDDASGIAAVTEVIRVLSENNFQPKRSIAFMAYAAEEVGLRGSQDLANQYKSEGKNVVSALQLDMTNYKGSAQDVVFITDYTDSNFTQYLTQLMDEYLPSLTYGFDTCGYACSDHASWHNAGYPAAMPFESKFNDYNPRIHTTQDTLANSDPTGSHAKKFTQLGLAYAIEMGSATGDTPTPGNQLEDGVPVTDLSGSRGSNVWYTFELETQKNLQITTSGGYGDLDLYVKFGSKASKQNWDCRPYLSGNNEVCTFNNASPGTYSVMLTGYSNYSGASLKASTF

What is called pIC50 is the IC50 on a negative log10 scale, so that one unit is a factor of ten. The low end stands for a high IC50, the high end for a low IC50. With `NC1Cc2ccccc2CC1P(=O)(O)O` (stereo not given) [3-amino-1,2,3,4-tetrahydronaphthalene-2-phosphonic acid hydrochloride], the results for the pIC50 in assay [1], in assay [2] and in assay [3] were 3.30, 3.82 and under 3.00, respectively.
What is called pKi is −log10 of the Ki, conventionally taken in molar units. A low value points to a high Ki. On to `NC1Cc2ccccc2C/C1=N/OCCCc1ccccc1` (stereo not given) [(3Z)-3-[(3-phenylpropoxy)imino]-1,2,3,4-tetrahydronaphthalen-2-amine hydrochloride], for which the negative logarithm of the Ki (pKi) is 3.96 in assay [1] and 5.22 in assay [3]. Further, the pIC50 in assay [2] (pH 8, 30 °C) was 3.52.
As for `CC(=O)C1Cc2ccccc2CC1N` (stereo not given) [1-(3-amino-1,2,3,4-tetrahydronaphthalen-2-yl)ethan-1-one hydrochloride], the pIC50 in assay [1] was under 3.00; in assay [2] (pH 8, 30 °C), 3.30; in assay [3], 3.12.
With `NC1Cc2ccccc2C/C1=N/OCCc1ccccc1` (stereo not given) [(3Z)-3-[(2-phenylethoxy)imino]-1,2,3,4-tetrahydronaphthalen-2-amine hydrochloride], the pKi in assay [1] is 3.59. For the same compound, the pIC50 in assay [2] (pH 8, 30 °C) is 3.77; in assay [3] it was 3.30.
Turning to `NC1Cc2ccccc2C/C1=N/OCc1ccccc1` (stereo not given) [(3Z)-3-[(benzyloxy)imino]-1,2,3,4-tetrahydronaphthalen-2-amine hydrochloride], the pIC50 in assay [1] is 3.10; in assay [2] (pH 8, 30 °C), 3.68; in assay [3], under 3.00.
Take `NC1Cc2ccccc2CC1=O` (stereo not given) [3-amino-1,2,3,4-tetrahydronaphthalen-2-one hydrochloride]: the pIC50 was 3.89 in assay [2] (pH 8, 30 °C) and under 3.00 in assay [3].
Turning to `O=C1Cc2ccccc2CN1O` [2-hydroxy-1,2,3,4-tetrahydroisoquinolin-3-one], the pIC50 in assay [1] and in assay [3] was under 3.00 each time. In assay [2], this compound showed a negative logarithm of the Ki (pKi) of 5.40.
For `NC1Cc2ccccc2C/C1=N/OCCCCCc1ccccc1` (stereo not given) [(3Z)-3-{[(5-phenylpentyl)oxy]imino}-1,2,3,4-tetrahydronaphthalen-2-amine hydrochloride], the pKi in assay [1] is 4.10; in assay [3], 4.52. In addition, the pIC50 in assay [2] (pH 8, 30 °C) was 3.89.
Consider `O=C1Cc2ccccc2CO1` [3,4-dihydro-1H-2-benzopyran-3-one], for which the pIC50 in assay [1], in assay [2] and in assay [3] was under 3.00 each time.
As for `NC1CCc2ccccc2C1` [(2S)-1,2,3,4-Tetrahydro-naphthalen-2-ylamine], the pIC50 was under 3.00 in assay [1]; under 3.00 in assay [2] (pH 8, 30 °C); under 3.00 in assay [3].
With `O=C1CCc2ccccc2C1` [1,2,3,4-tetrahydronaphthalen-2-one], the pIC50 in assay [1], in assay [2] and in assay [3] was under 3.00 throughout.
`NC1Cc2ccccc2C/C1=N/OCCCCc1ccccc1` (stereo not given) [(3Z)-3-[(4-phenylbutoxy)imino]-1,2,3,4-tetrahydronaphthalen-2-amine hydrochloride]: the pKi was 4.26 in assay [1] and 5.10 in assay [3]. The compound further gave a pIC50 in assay [2] (pH 8, 30 °C) of 3.96.
Consider `NN1Cc2ccccc2CC1=O` [2-amino-1,2,3,4-tetrahydroisoquinolin-3-one], for which the results for the pIC50 in assay [1], in assay [2] and in assay [3] were under 3.00, 3.13 and under 3.00, respectively.
In assay [1], `CO/N=C1/Cc2ccccc2CC1N` (stereo not given) [(3Z)-3-(methoxyimino)-1,2,3,4-tetrahydronaphthalen-2-amine hydrochloride] gave a negative-log Ki (pKi) of 3.89. Besides, the pIC50 in assay [2] (pH 8, 30 °C) is 3.10; in assay [3], under 3.00.
On to `O=C1Cc2ccccc2CS1` [3,4-dihydro-1H-2-benzothiopyran-3-one], for which the pIC50 in assay [1] and in assay [3] was under 3.00 in each case. Besides, in assay [2], the pKi was 5.40.
Turning to `NC1Cc2ccccc2CC1C(=O)NO` (stereo not given) [3-amino-N-hydroxy-1,2,3,4-tetrahydronaphthalene-2-carboxamide hydrochloride], the pKi in assay [1] and in assay [2] was 5.40 in each case. For the same compound, the pIC50 in assay [3] is under 3.00.
Turning to `NC1Cc2ccccc2NC1=O` (stereo not given) [3-amino-1,2,3,4-tetrahydroquinolin-2-one hydrochloride], the pIC50 in assay [1] and in assay [3] was under 3.00 throughout. In assay [2], this compound had a pKi of 4.10.
